Like-named read-outs stand apart in the source and are kept apart here.
Legend:
mice [1] = assay: Central anticholinergic: oxotremorine tremors in mice; conditions: Mus musculus, ip, 1 h, read-out: ED-100, central anticholinergic
mice [2] = assay: Antiarrhythmic: chloroform-induced cardiac arrhythmia in mice; assay type: in vivo, mouse; conditions: for A = Antiarrythmic: mouse hearts fibrillating (of 3): 15 min. after a 200 mg/kg intraperitoneal dose, significance <2; for ED100: Mus musculus, ip, mice, reference compounds, read-out: ED-100, antiarrhythmic
Method: ^2 A = Antiarrythmic. Less than 2/3 mouse hearts fibrillating 15 min.

[3] = system: hypercholesterolemic mice; assay: Hypocholesterolemic: serum cholesterol in hypercholesterolemic mice; assay type: in vivo, mouse; conditions: Mus musculus, hypercholesterolemic mice; for inhibition in vivo at 200 mg/kg: 2 oral doses of 200 mg/kg 20 hr. apart, significance >20, read-out: C = Hypocholesterolemic: percent decrease in serum cholesterol
Method: Mice made hypercholesterolemic by being fed a high cholesterol-cholic acid diet for 7 days were dosed on the sixth and seventh days, p.o. After fasting overnight, reduction in serum cholesterol concentration by more than 15% (>15) from hypercholesterolemic control mice indicates activity.
^4 C = Hypocholesterolemic. Percent decrease in serum cholesterol in
hypercholesterolemic mice given 2 oral doses of 200 mg/kg drug candidate

rats [4] = assay: Antiulcer: stress induced gastric ulcers in rats; assay type: in vivo, rat; conditions: for inhibition in vivo at 50 mg/kg / ED100: Rattus norvegicus; for inhibition in vivo at 50 mg/kg: 4 hr. following a 50 mg/kg oral dose in rats, significance >60, read-out: U = Antiulcerative: percent inhibition of stress ulcers; for Antiulcer effect, in words: rat, in vivo; for ED100: po, read-out: ED-100, antiulcer
Method: Fasted rats were dosed, p.o., 30 minutes before immobilization in wire mesh and partial immersion in water for 4 hours. Inhibition of the resulting stress induced gastric ulcers by more than 60% (>60) indicates activity.
^6 U = Antiulcerative. Percent inhibition of stress ulcers 4 hr.
following a 50 mg/kg oral dose in rats.

mice [5] = assay: Acute toxicity / autonomic effects observation; conditions: mouse, in vivo
Method: Mice were dosed at 300 mg/kg, per oral (p.o.) and […], interperitoneal (i.p.) for observation of any acute toxic symptoms or autonomic effects during the subsequent 72 hours. If none were noted, pharmacological evaluation proceeded employing doses and concentrations for each test based on appropriate multiples of doses required by suitable reference compounds. If acute toxicity was observed initially, the minimal toxic dose was determined and pharmacological screening doses were reduced proportionately.

rats [6] = assay: Bradycardia: heart rate by EKG in rats; assay type: in vivo, rat; conditions: for inhibition in vivo at 5 mg/kg / ED100: Rattus norvegicus; for inhibition in vivo at 5 mg/kg: 0.75 h, 45 min. after a 5 mg/kg oral dose in rats, significance >10, read-out: B = Bradycardiac: percent decrease in heart rate; for ED100: po, rats, reference compounds, read-out: ED-100, bradycardia
Method: […] Decrease in heart rate by more than 10% (>10) is considered a bradycardic effect.
Percent decrease in heart rate 45 min. after a 5
mg/kg oral dose in rats.

[7] = system: spontaneously hypertensive rats (SHR); assay: Antihypertensive: blood pressure (tail cuff) in spontaneously hypertensive rats (SHR); assay type: in vivo, rat; conditions: for inhibition in vivo at 100 mg/kg / ED100: Rattus norvegicus; for inhibition in vivo at 100 mg/kg: 6 hr. after a 100 mg/kg oral dose, significance >10, read-out: Antihypertensive: percent decrease in systolic blood pressure in spontaneously hypertensive rats; for ED100: po, read-out: ED-100, antihypertensive
Method: Blood pressure was measured indirectly (tail cuff) in unanesthetized, unheated spontaneously hypertensive rats (SHR) before and 2, 4, and 6 hours after p.o. dosing. Reduction in mean pressure by more than 10% (>10) at any two consecutive measurement times after dosing indicates antihypertensive activity.

glucose-loaded mice = assay: Hypoglycemic, glucose-loaded mice; assay type: in vivo, mouse; conditions: glucose loaded mice, 100 mg/kg oral dose; significance >20
Method: Reduction in blood glucose concentration by more than 20% (>20) in fasted, glucose-loaded (1 gm/kg) mice one hour after dosing, p.o., indicates activity (test compound administered at same time as glucose load).
^5 H = Hypoglycemic. Percent decrease in serum glucose concentration
in glucose loaded mice hr. following a 100 mg/kg oral dose.

rats [8] = assay: Antiedema: carrageenan paw edema in rats; assay type: in vivo; conditions: Rattus norvegicus, po, 3 h, read-out: ED-100, antiedema
Method: Rats are dosed p.o. one hour before intraplantar injection of carrigeenan (0.1 ml, 1% susp.). Inhibition of paw edema by more than 30% (>30) 3 hours after carriegeenan injection indicates acute anti-edema activity.

In the case of `N[C@@H]1C[C@H]1c1ccccc1` (relative stereo) [tranylcypromine], the ED100 (mice [1]) is reported as greater than 25 mg/kg.
`CC1(C)CCCC(C)(C)N1CC1=CC(=O)N(c2cccc(SC(F)(F)F)c2)C1` [Compound 2, N-[3'-trifluoromethylthiophenyl]-4-[2",2",6",6"tetramethylpiperidino]methylpyrrolid-3-en-2-one] was tested, and the “A = Antiarrythmic: mouse hearts fibrillating (of 3)” value (“A = Antiarrythmic” for short) (mice [2]) was 3, the inhibition in vivo at 200 mg/kg [3] was 0% and the inhibition in vivo at 50 mg/kg (rats [4]) was 38%. For the same molecule, the “Acute toxicity / toxic effects” value (mice [5]) was “apparent absence”, the “Autonomic effect / autonomic inhibition” value (mice [5]) was “apparent absence of autonomic effect” and the inhibition in vivo at 5 mg/kg (rats [6]) was 6%. The inhibition in vivo at 100 mg/kg [7] was 14%.
For `CC1(C)CCCC(C)(C)N1CC1=CC(=O)N(c2cc(C(F)(F)F)cc(C(F)(F)F)c2)C1` [Compound 3], the “A = Antiarrythmic” value (mice [2]) was 3, the inhibition in vivo at 200 mg/kg [3] was 0% and the inhibition in vivo at 50 mg/kg (rats [4]) was 38%. For the same molecule, the “Autonomic effect / autonomic inhibition” value (mice [5]) was “No evidence of autonomic inhibition”, the inhibition in vivo at 5 mg/kg (rats [6]) was 14% and the inhibition in vivo at 100 mg/kg [7] was 32%. The “Antihypertensive activity, duration” value ([7]; p.o.) was “perhaps of long duration”, the “Antihypertensive activity, onset / comparison in words” value ([7]; p.o.) was “somewhat slow in onset” and the “Dose with borderline antihypertensive result” value ([7]; p.o.) was 10 mg/kg.
With `CC1(C)CCCC(C)(C)N1CC1=CC(=O)N(c2ccc(F)cc2)C1` [Compound 5] the “A = Antiarrythmic” value (mice [2]) was 0, the “Antiarrhythmic effect, in words” value (mice [2]; mouse, in vivo) was “noted at antihypertensive doses” and the inhibition in vivo at 200 mg/kg [3] was 0%. For the same molecule, the inhibition in vivo at 50 mg/kg (rats [4]) was 75%, the “Antiulcer effect, in words” value (rats [4]) was “noted at antihypertensive doses” and the “Autonomic effect / autonomic inhibition” value (mice [5]) was “absence of evidence of autonomic inhibition”. The inhibition in vivo at 5 mg/kg (rats [6]) was 24%, the inhibition in vivo at 100 mg/kg [7] was 26% and the “Dose with borderline antihypertensive result” value ([7]; p.o.) was 5 mg/kg.
In the case of `CC1(C)CCCC(C)(C)N1CC1=CC(=O)N(c2ccccc2)C1` [Compound 6], the “H = Hypoglycemic: percent decrease in serum glucose concentration” value (glucose-loaded mice) is reported as 29%, the “A = Antiarrythmic” value (mice [2]) is reported as 3 and the inhibition in vivo at 200 mg/kg [3] is reported as 12%. For the same molecule, the inhibition in vivo at 50 mg/kg (rats [4]) was 75%, the “Autonomic effect / autonomic inhibition” value (mice [5]) was “little evidence of autonomic effect” and the inhibition in vivo at 5 mg/kg (rats [6]) was 20%. For the same molecule, the inhibition in vivo at 100 mg/kg [7] was 18%.
`CC1(C)CCCC(C)(C)N1CC1=CC(=O)N(c2cccc([N+](=O)[O-])c2)C1` [Compound 11] was tested, and the “A = Antiarrythmic” value (mice [2]) was 3, the inhibition in vivo at 200 mg/kg [3] was 0% and the inhibition in vivo at 50 mg/kg (rats [4]) was 25%. For the same molecule, the “Autonomic effect / autonomic inhibition” value (mice [5]) was “absence”, the inhibition in vivo at 5 mg/kg (rats [6]) was 5% and the “Bradycardic effects, in words” value (rats [6]; rat, in vivo) was “absence of bradycardia”. The inhibition in vivo at 100 mg/kg [7] was 27% and the “Antihypertensive activity, onset / comparison in words” value ([7]; p.o.) was “Mild, rather slow onset”.
`CC1(C)CCCC(C)(C)N1CC1=CC(=O)N(c2cccc(Br)c2)C1` [Compound 14] was tested, and the “A = Antiarrythmic” value (mice [2]) was 3, the inhibition in vivo at 200 mg/kg [3] was 5% and the inhibition in vivo at 50 mg/kg (rats [4]) was 50%. The “Antiulcer effect, in words” value (rats [4]) was “activity appears to be weaker than with Compound 13”, the inhibition in vivo at 5 mg/kg (rats [6]) was 0% and the inhibition in vivo at 100 mg/kg [7] was 4%.
With `CC(=O)Oc1ccccc1C(=O)O` [aspirin] the ED100 (rats [8]) was 150 mg/kg.
Molecule `C[C@H](CS)C(=O)N1CCC[C@H]1C(=O)O` [captopril, reference compound] has an ED100 ([7]; SHR, reference compounds) of 100 mg/kg.
`CC1(C)[C@@H](OC(=O)CCC(=O)O)CC[C@]2(C)[C@H]3C(=O)C=C4[C@@H]5C[C@@](C)(C(=O)O)CC[C@]5(C)CC[C@@]4(C)[C@]3(C)CC[C@@H]12` [carbenoxolone, reference compound] was tested, and the ED100 (rats [4]; rats, reference compounds) was greater than 100 mg/kg.
`CNC1=Nc2ccc(Cl)cc2C(c2ccccc2)=[N+]([O-])C1` [chlordiazepoxide, reference compound] was tested, and the ED100 (rats [4]) was 100 mg/kg.
In the case of `CN(C)CCCN1c2ccccc2Sc2ccc(Cl)cc21` [chlorpromazine, reference compound], the ED100 (rats [4]) is reported as 20 mg/kg and the ED100 (mice [1]) is reported as 2.5 mg/kg.
With `CCOC(=O)C(C)(C)Oc1ccc(Cl)cc1` [clofibrate, reference compound] the ED100 ([3]; po, reference compounds, read-out: ED-100, hypocholesterolemic) was 400 mg/kg.
In the case of `Clc1cccc(Cl)c1N=C1NCCN1` [clonidine, reference compound], the ED100 (rats [6]) is reported as 0.5 mg/kg and the ED100 [7] is reported as less than 5 mg/kg.
Work on `CNCCCN1c2ccccc2CCc2ccccc21` [desipramine] yielded an ED100 (mice [1]) greater than 25 mg/kg.
In the case of `O=C(O)c1cc(-c2ccc(F)cc2F)ccc1O` [diflunisal], the ED100 (rats [8]; p.o., rats, reference compounds) is reported as 25 mg/kg.
`COc1ccc([C@@H]2Sc3ccccc3N(CCN(C)C)C(=O)[C@@H]2OC(C)=O)cc1` [diltiazem, reference compound] gave an ED100 (mice [2]) of 50 mg/kg and an ED100 (rats [6]) of 10 mg/kg.
`CC(C)N(CCC(C(N)=O)(c1ccccc1)c1ccccn1)C(C)C` (stereo not drawn) [disopyramide, reference compound] gave an ED100 (mice [2]) of 50 mg/kg.
In the case of `O=C(CCCN1CCC(O)(c2ccc(Cl)cc2)CC1)c1ccc(F)cc1` [haloperidol], the ED100 (mice [1]) is reported as 10 mg/kg.
`NNc1nncc2ccccc12` [hydralazine, reference compound] gave an ED100 [7] of 2.5 mg/kg.

— patent US4469701A, “Pyrrolid-3-en-2-ones and pharmaceutical methods of use thereof” (Stauffer Chemical Company, priority 1983, dated 1984)
